Experimental data taken from patent US7169925B2, “Indole derivatives as interleukin-4 gene expression inhibitors” (Aventis Pharmaceuticals Inc., priority 2002, dated 2007).
Structures can show the parent of a compound that is named as a salt. Starred links: 1 amine or outer side, 2 acyl side, 3 side chain; linkers in the order of their positions; H or OH if unused. Positions of bridges follow the written chain, without caps; N, C: chain ends. Non-standard residues stand in square brackets, D forms with d. Residues, ends and D or L forms follow the SMILES beside them. Chains are numbered I, II in the order given. Actinocin(9to1) = Cc1c2oc3c(C)ccc(C(=O)[*:1])c3nc-2c(C(=O)[*:2])c(N)c1=O; NMeV = CN[C@H](C(=O)O)C(C)C; Sar = CNCC(=O)O

Experiments:
Swiss 3T3 fibroblasts = assay: In vitro cytotoxicity assay on contact inhibited, non-dividing 3T3 fibroblasts (MTS); assay type: cell-based
Procedure: Other toxicity assays may be used.
Any compound killing 3T3 fibroblast cells was omitted from further studies.
Contact inhibited Swiss 3T3 fibroblasts are purchased from ATCC.
All compound dilutions are assayed in triplicate. […] Cells are returned to the incubator for 2 days.
Media is added to blank wells for background calculations.
Note that starting concentration of CsA was 1 μM.

[1] = Oral bioavailability (statement); assay type: in vivo
Solubility (statement) = assay type: physicochemical
[2] = Sheep asthma model (Ascaris suum antigen challenge, specific lung resistance, PC400); assay type: in vivo
Procedure: Briefly, transpulmonary pressure, pulmonary resistance (RL), specific lung resistance (SRL airway hyper reactivity, airway responsiveness, are determined.
Venous blood samples (˜5 ml) are obtained from a peripheral leg vein or the jugular vein for pharmacokinetic data. Measurement of Airway Mechanics: The unsedated sheep are restrained in a cart in the prone position with their heads immobilized. After topical anesthesia of the nasal passages with 2% lidocaine solution, a balloon catheter is advanced through one nostril into the lower esophagus. The animals are […] with a cuffed endotracheal tube through the other nostril using a flexible fiberoptic bronchoscope as a guide. (The cuff of the endotracheal tube is inflated only for the measurement of airway mechanics and during aerosol challenges to prevent undue discomfort. This procedure has no effect on airway mechanics). Pleural pressure is estimated with the esophageal balloon catheter (filled with one ml of air) which is positioned 5–10 cm from the gastroesophageal junction. In this position the end expiratory pleural pressure ranges between −2 and −5 cm H2O. Once the balloon is placed, it is secured so that it remains in position for the duration of the experiment. Lateral pressure in the trachea is measured with a sidehole catheter (inner dimension, 2.5 mm) advanced through and positioned distal to the tip of the endotracheal tube. Transpulmonary pressure, the difference between tracheal and pleural pressure, is measured with a differential pressure transducer catheter system. […] The signals of flow and transpulmonary pressure is recorded on an oscilloscope recorder which is linked to a computer for on-line calculation of RL from transpulmonary pressure, respiratory volume (obtained by digital integration) and flow. […] Immediately after the measurement of RL, thoracic gas volume (Vtg) is measured in a constant volume body plethysmograph to obtain specific lung resistance (SRL=RL·Vtg) in L×cm H2O/LPS. […]

[3] = 3 mg/kg aerosol 30 min before antigen challenge, 2 sheep (FIG. 3A)

Compound | melting point | also measured
Cn1c(C(=O)O)c(Nc2ccncc2)c2ccccc21.O=C(O)/C=C\C(=O)O | 192 to 194 °C (dec.) | –
O=C(O)c1[nH]c2cccc(F)c2c1Nc1ccncc1 (as salt: trifluoroacetate) | 231 to 234 °C (dec.) | –
COc1ccc2[nH]c(C(=O)O)c(Nc3ccncc3)c2c1 (as salt: trifluoroacetate) | 211 to 213 °C | –
Cn1c(C(=O)O)c(Nc2ccncc2)c2c(F)cccc21 (as salt: trifluoroacetate) [Example 31, 4-Fluoro-1-Methyl-3-(4-pyridinylamino)-1H-indole-2-carboxylic acid Trifluoroacetate Salt] | 197 to 199 °C | –
Cc1c2oc3c(C)ccc(C(=O)N[C@@H]4C(=O)N[C@H](C(C)C)C(=O)N5CCC[C@H]5C(=O)N(C)CC(=O)N(C)[C@@H](C(C)C)C(=O)O[C@@H]4C)c3nc-2c(C(=O)N[C@@H]2C(=O)N[C@H](C(C)C)C(=O)N3CCC[C@H]3C(=O)N(C)CC(=O)N(C)[C@@H](C(C)C)C(=O)O[C@@H]2C)c(N)c1=O [Actinomycin D] (I: T[dV]P[Sar][NMeV] / II: T[dV]P[Sar][NMeV]; ester I:1-I:C, II:1-II:C; linker I:N-II:N via Actinocin(9to1)) | – | viability of quiescent 3T3 cells, % control (Swiss 3T3 fibroblasts; 0.001 μM, 2 day incubation): 79.0 % control; toxic effects on quiescent 3T3 cells (in words) (Swiss 3T3 fibroblasts; non-dividing 3T3 cells): effected the viability
C[C@@H]1C[C@H]2[C@@H]3CCC4=CC(=O)C=C[C@]4(C)[C@@]3(F)[C@@H](O)C[C@]2(C)[C@@]1(O)C(=O)CO [Dexamethasone] | – | viability of quiescent 3T3 cells, % control (Swiss 3T3 fibroblasts; mouse, 2 days, 0.001 μM): 100.0 % control
CC(C)(C)OC(=O)c1[nH]c2cccc(F)c2c1Nc1ccncc1 [Example 17, 4-fluoro-3-(4-pyridinylamino)-1H-indole-2-carboxylic tert-butyl ester] | 210 to 212 °C | –
COc1ccc2[nH]c(C(=O)OC(C)(C)C)c(Nc3ccncc3)c2c1 [Example 21, 5-methoxy-3-(4-pyridinylamino)-1H-indole-2-carboxylic tert-butyl ester] | 217 to 219 °C | –
CCOC(=O)c1c(Nc2ccncc2)c2ccc(Cl)cc2n1C [Example 27, 6-Chloro-1-methyl-3-(4-pyridinylamino)-1H-indole-2-carboxylic ethyl ester] | 154 to 155 °C | –
O=C(O)c1[nH]c2ccccc2c1Nc1ccncc1 [Example 28, 3-(4-Pyridinylamino)-1H-indole-2-carboxylic acid] | – | oral bioavailability (in words) [1]: low oral bioavailability; solubility (in words) (Solubility (statement)): relatively low solubility; antigen-induced early bronchial response: acute increase in specific lung resistance (SRL) [2, 3]: did not affect; antigen-induced late bronchial response (SRL) [2, 3]: blocked the late response; post challenge airway responsiveness (decrease of PC400 after antigen challenge) ([2]; 3 mg/kg, 2 sheep (FIG. 3B)): prevented this effect
CCOC(=O)c1c(Nc2ccncc2)c2ccc(Cl)cc2n1CC(=O)N(CC)CC [Example 34, 6-Chloro-1-diethylcarbamoylmethyl-3-(pyridin-4-ylamino)-1H-indole-2-carboxylic acid ethyl ester] | 212 to 214 °C | –
CN(C(=O)c1ccc(Cl)cc1)c1c(C(=O)O)[nH]c2cc(Cl)cc(Cl)c12 [Example 80, 3-((4-chlorobenzoyl)methylamino)-4,6-dichloro-1H-indole-2-carboxylic acid] | 279 to 283 °C | –
O=C(Nc1c(C(=O)O)[nH]c2cc(Cl)cc(Cl)c12)c1ccccc1Cc1ccccc1 [Example 87, 3-((2-Benzylbenzoyl)amino)-4,6-dichloro-1H-indole-2-carboxylic acid] | 234 to 235 °C | –
CN(C(=O)c1cccc(F)c1)c1c(C(=O)O)[nH]c2cc(Cl)cc(Cl)c12 [Example 88, 3-((3-Fluorobenzoyl)methylamino)-4,6-dichloro-1H-indole-2-carboxylic acid] | 270 to 280 °C | –
NC(=O)c1[nH]c2ccccc2c1Nc1ccncc1 [Example 128, 3-(Pyridin-4-ylamino)-1H-indole-2-carboxamide] | 230 °C (dec.) | –
CN(Cc1cnc2nc(N)nc(N)c2n1)c1ccc(C(=O)N[C@@H](CCC(=O)O)C(=O)O)cc1 [Methotrexate] | – | viability of quiescent 3T3 cells, % control (Swiss 3T3 fibroblasts; mouse, 2 days, 0.03 μM): 100.0 % control
